US7888464B2, “Hepatitis C virus inhibitors” (Bristol-Myers Squibb Company, priority 2006, dated 2011)

System: HCV replicon (Renilla luciferase reporter) in HUH-7 cells
Assay: HCV replicon luciferase reporter assay
Type: cell-based
Conditions: Huh-7, read-out: EC50 in the replicon Luciferase assay
From the text: An HCV replicon whole cell system was established as described by Lohmann V, Korner F, Koch J, Herian U, Theilmann L, Bartenschlager R., Science 285(5424): 110-3 (1999). This system enabled us to evaluate the effects of our HCV Protease compounds on HCV RNA replication. Briefly, using the HCV strain 1b sequence described in the Lohmann paper (Assession number: AJ238799), an HCV cDNA was synthesized by Operon Technologies, Inc. (Alameda, Calif.), and the full-length replicon was then assembled in plasmid pGem9zf(+) (Promega, Madison, Wis.) using standard molecular biology techniques. The replicon consists of (i) the HCV 5′ UTR fused to the first 12 amino acids of the capsid protein, (ii) the neomycin phosphotransferase gene (neo), (iii) the IRES from encephalomyocarditis virus (EMCV), and (iv) HCV NS3 to NS5B genes and the HCV 3′ UTR. […]
As a secondary assay, EC50 determinations from the replicon FRET assay were confirmed in a replicon luciferase reporter assay. […] Following 4 days in a 37° C./5% CO2 incubator, cells were analyzed for Renilla Luciferase activity using the Promega Dual-Glo Luciferase Assay System. […] Plates were read on a Packard TopCount NXT using a luminescence program.
The percentage inhibition was calculated using the formula below: […]
The values were graphed and analyzed using XLfit to obtain the EC50 value.

For C=C[C@@H]1C[C@]1(NC(=O)[C@@H]1C[C@@](O)(c2ccc(-c3ccccc3)cc2)CN1C(=O)[C@@H](NC(=O)OC(C)(C)C)C(C)(C)C)C(=O)NS(=O)(=O)C1CC1 [Compound 3], the EC50 was 1.4 nM.
